From ChEMBL document CHEMBL3396990, “Development of 1,3-diphenyladamantane derivatives as nonsteroidal progesterone receptor antagonists” (Bioorg Med Chem, 2015)
Activity calls are given as the source filed them. The calls are words filed in the database; no cut-off is given here.

Tests used:
Progesterone receptor [1] = biological target: T1, Progesterone receptor (Homo sapiens, UniProt P06401); assay: Antagonist activity at PR in human T47D cells assessed as inhibition of progesterone-inducted alkaline phosphatase expression after 24 hrs by plate reader analysis; format: cell-based
T1 sequence (P06401 whole entry): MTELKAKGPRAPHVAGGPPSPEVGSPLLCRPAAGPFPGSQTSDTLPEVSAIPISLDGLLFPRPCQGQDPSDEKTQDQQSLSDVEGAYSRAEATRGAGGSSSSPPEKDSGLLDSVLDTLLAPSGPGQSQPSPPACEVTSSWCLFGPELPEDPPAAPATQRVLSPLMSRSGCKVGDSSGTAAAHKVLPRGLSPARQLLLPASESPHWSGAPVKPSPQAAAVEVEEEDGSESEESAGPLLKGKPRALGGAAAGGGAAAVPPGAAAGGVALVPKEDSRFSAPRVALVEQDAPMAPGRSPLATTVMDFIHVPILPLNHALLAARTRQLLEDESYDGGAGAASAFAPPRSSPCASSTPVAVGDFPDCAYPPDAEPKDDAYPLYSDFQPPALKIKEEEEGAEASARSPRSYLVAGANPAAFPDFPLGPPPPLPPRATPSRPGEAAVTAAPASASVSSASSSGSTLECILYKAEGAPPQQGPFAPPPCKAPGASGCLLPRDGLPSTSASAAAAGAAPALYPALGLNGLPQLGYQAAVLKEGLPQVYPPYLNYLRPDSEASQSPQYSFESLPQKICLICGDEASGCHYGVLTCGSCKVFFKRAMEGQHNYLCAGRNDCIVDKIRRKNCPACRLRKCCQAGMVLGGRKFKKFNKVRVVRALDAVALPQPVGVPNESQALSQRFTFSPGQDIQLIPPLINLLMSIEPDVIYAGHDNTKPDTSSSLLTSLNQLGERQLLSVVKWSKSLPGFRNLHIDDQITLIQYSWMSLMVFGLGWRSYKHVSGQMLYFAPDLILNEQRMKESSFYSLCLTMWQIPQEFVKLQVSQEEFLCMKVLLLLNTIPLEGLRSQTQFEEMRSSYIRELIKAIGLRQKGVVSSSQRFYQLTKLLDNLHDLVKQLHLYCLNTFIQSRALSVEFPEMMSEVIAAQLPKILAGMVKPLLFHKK

[2] = biological target: T2, Progesterone receptor (Homo sapiens) (UniProt P06401); assay: Agonist activity at PR in human T47D cells assessed as induction of alkaline phosphatase expression after 24 hrs by plate reader analysis; format: cell-based
T2 sequence (whole entry): T1 sequence (P06401 whole entry)

Progesterone receptor [3] = biological target: T1, Progesterone receptor; assay: Displacement of [1,2,6,7-3H]progesterone from human recombinant PR LBD after 24 hrs by liquid scintillation counting analysis

Row | SMILES | IC50 (Progesterone receptor [1]) [nM] | Activity [2] | IC50 (Progesterone receptor [3]) [nM]
1 | N#Cc1ccc(C23CC4CC(C2)CC(c2ccc(N(Cc5ccccc5)Cc5ccccc5)cc2)(C4)C3)cc1 | > 1000 | inactive | –
2 | CCCCCC(=O)N(C)c1ccc(C23CC4CC(CC(c5ccc(C#N)cc5)(C4)C2)C3)cc1 | 125 | inactive | –
3 | CC(=O)Nc1ccc(C23CC4CC(CC(c5ccc(C#N)cc5)(C4)C2)C3)cc1 | 58.4 | inactive | –
4 | N#Cc1ccc(C23CC4CC(C2)CC(c2ccc(NC(=O)c5ccccc5)cc2)(C4)C3)cc1 | 404 | inactive | –
5 | CN(C(=O)c1ccccc1)c1ccc(C23CC4CC(CC(c5ccc(C#N)cc5)(C4)C2)C3)cc1 | 311 | inactive | 228
6 | CCCCCC(=O)Nc1ccc(C23CC4CC(CC(c5ccc(C#N)cc5)(C4)C2)C3)cc1 | 174 | inactive | –
7 | COC(=O)Nc1ccc(C23CC4CC(CC(c5ccc(C#N)cc5)(C4)C2)C3)cc1 | 25 | inactive | > 10000

The next lines start with the values.

Row | IC50 (Progesterone receptor [1]) [nM] | Activity [2] | IC50 (Progesterone receptor [3]) [nM] | SMILES
8 | 178 | inactive | – | N#Cc1ccc(C23CC4CC(CC(c5ccc(N)cc5)(C4)C2)C3)cc1
9 | 25.8 | inactive | 53 | CC(=O)N(C)c1ccc(C23CC4CC(CC(c5ccc(C#N)cc5)(C4)C2)C3)cc1
10 | 53 | inactive | – | N#Cc1ccc(C23CC4CC(C2)CC(c2ccc([N+](=O)[O-])cc2)(C4)C3)cc1
11 | 36.2 | inactive | – | COC(=O)N(C)c1ccc(C23CC4CC(CC(c5ccc(C#N)cc5)(C4)C2)C3)cc1
12 | 39.5 | inactive | – | CCN(C(C)=O)c1ccc(C23CC4CC(CC(c5ccc(C#N)cc5)(C4)C2)C3)cc1
13 | 74 | inactive | – | CN(c1ccc(C23CC4CC(CC(c5ccc(C#N)cc5)(C4)C2)C3)cc1)S(C)(=O)=O
14 | 119 | inactive | – | CS(=O)(=O)Nc1ccc(C23CC4CC(CC(c5ccc(C#N)cc5)(C4)C2)C3)cc1
